Results as given in patent US6342508B1, “N-hydroxy-2-(Alkyl,Aryl or Heteroaryl sulfanyl, sulfinyl or sulfonyl) 3-substituted alkyl, aryl or heteroarylamides as matrix metalloproteinase inhibitors” (American Cyanamid Company, priority 1997, dated 2002).

Experiments:
[1] = target: MMP 13 (Homo sapiens, UniProt P45452); test: MMP 13 inhibition (HTS); assay type: biochemical
[2] = target: T1, TACE (Homo sapiens, UniProt P78536); test: Procedure for Measuring TACE Inhibition (fluorescent peptidyl substrate); assay type: biochemical; details: 1 mM
T1 construct: purchased Immunex
T1 sequence (P78536 215-824): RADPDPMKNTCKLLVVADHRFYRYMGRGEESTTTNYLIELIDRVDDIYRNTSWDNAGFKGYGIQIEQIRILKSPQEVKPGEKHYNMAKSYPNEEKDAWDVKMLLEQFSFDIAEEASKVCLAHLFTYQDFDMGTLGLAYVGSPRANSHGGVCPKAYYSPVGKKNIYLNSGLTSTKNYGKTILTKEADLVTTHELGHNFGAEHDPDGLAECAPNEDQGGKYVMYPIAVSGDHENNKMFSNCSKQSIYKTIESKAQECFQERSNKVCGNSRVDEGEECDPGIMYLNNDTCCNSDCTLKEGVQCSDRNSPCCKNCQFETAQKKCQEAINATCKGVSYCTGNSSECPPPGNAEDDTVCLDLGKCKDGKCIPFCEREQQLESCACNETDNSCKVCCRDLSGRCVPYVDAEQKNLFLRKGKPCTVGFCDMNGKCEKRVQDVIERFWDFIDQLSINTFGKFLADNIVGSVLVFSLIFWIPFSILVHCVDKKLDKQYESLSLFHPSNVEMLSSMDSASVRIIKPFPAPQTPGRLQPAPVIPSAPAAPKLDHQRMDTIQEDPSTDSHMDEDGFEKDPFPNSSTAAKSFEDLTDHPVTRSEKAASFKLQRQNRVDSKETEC
Procedure: Using 96-well black microtiter plates, each well recieves a solution composed of 10 μL TACE (Immunex, final concentration 1 μg/mL), 70 μL Tris buffer, pH 7.4 containing 10% glycerol (final concentration 10 mM), and 10 μL of test compound solution in DMSO (final concentration, DMSO concentration <1%) and incubated for 10 minutes at room temperature. The reaction is initiated by addition of a fluorescent peptidyl substrate (final concentration 100 μM) to each well and then shaking on a shaker for 5 sec. The reaction is read (excitation 340 nm, emission 420 nm) for 10 min. and the increase in fluorescence over time is plotted as a linear line. The slope of the line is calculated and represents the reaction rate. […] The mean (x±sem) of the control rate is calculated and compared for statistical significance (p<0.05) with drug-treated rates using Dunnett's multiple comparison test.

MMP 13 % inhibition at 36 nM (HTS) [1]	TACE % inhibition at 1 mM [2]	MMP 13 % inhibition at 0.2 μM (HTS) [1]	Molecule
54%	45.9%	–	3-Bromo-2-chloro-thiophene-2-sulfonic acid 4-(1-hydroxycarbamoyl-heptylsulfonyl)-hydroxyamide [Example 239]
–	40.4%	10%	COc1ccc(SC(C)C(=O)NO)cc1 (stereo not shown) [Example 111, N-Hydroxy-2-(4-methoxy-benzenesulfanyl)-propionamide]
–	33.7%	50%	CC(C)CCSC(C)C(=O)NO (stereo not shown) [Example 112, N-Hydroxy-2-(3-methyl-butane-1-sulfanyl)-propionamide]
–	7.8%	0%	CCC(SCC(=O)OC)C(=O)NO (stereo not shown) [Example 119, (1-Hydroxycarbamoyl-propane-1-sulfanyl)-acetic acid methyl ester]
–	−9.31%	25%	O=C(CCC(Sc1ccc(Br)cc1)C(=O)NO)NO (stereo not shown) [Example 134, 4-Hydroxycarbamoyl-4-(4-bromo-benzenesulfanyl)-butyric acid hydroxyamide]
–	13.35%	83%	O=C(CCC(Sc1ccccc1C(F)(F)F)C(=O)NO)NO (stereo not shown) [Example 137, 4-Hydroxycarbamoyl-4-(2-trifluoromethyl-benzenesulfanyl)-butyric acid hydroxyamide]
–	–	49%	N=C(N)NCCCC(C(=O)NO)S(=O)(=O)c1ccccc1Br (stereo not shown) [Example 159, 2-(2-Bromosulfonyl)-5-guanidino-pentanoic acid hydroxyamide]
–	–	14%	CCCCCCC(Sc1cc(Cl)ccc1Cl)C(=O)NO (stereo not shown) [Example 160, 2-(2,5-dichlorobenzenesulfanyl)-octanoic Acid Hydroxyamide]
–	–	13%	CCCCCCC(Sc1cccc(OC)c1)C(=O)NO (stereo not shown) [Example 162, 2-(3-Methoxybenzenesulfanyl)-octanoic acid hydroxyamide]
–	–	71%	CCCCCCC(Sc1ccc(OC)c(OC)c1)C(=O)NO (stereo not shown) [Example 165, 2-(3,4-Dimethoxybenzenesulfanyl)-octanoic acid hydroxyamide]
–	–	21%	CCCCCCC(Sc1nc2ccccc2[nH]1)C(=O)NO (stereo not shown) [Example 168, 2-(2-Benzimidazol-2-ylsulfanyl)-octanoic acid hydroxyamide]
28%	–	–	CCCCCCC(Sc1nc2ccccc2o1)C(=O)NO (stereo not shown) [Example 169, 2-(2-Benzooxazol-2-ylsulfanyl)-octanoic acid hydroxyamide]
32%	–	–	CCCCCCC(Sc1nc2ccccc2s1)C(=O)NO (stereo not shown) [Example 170, 2-(2-Benzothiazol-2-ylsulfanyl)-octanoic acid hydroxyamide]
5%	–	–	CCCCCCC(C(=O)NO)[S+]([O-])c1nc2ccccc2[nH]1 (stereo not shown) [Example 177, 2-(2-Benzimidazol-2-ylsulfinyl)-octanoic acid hydroxyamide]
6%	–	–	CCCCCCC(C(=O)NO)S(=O)(=O)c1[nH]c2ccccc2[n+]1[O-] (stereo not shown) [Example 181, 2-(3-Oxy-1H-benzimidazole-2-sulfonyl)-octanoic acid hydroxyamide]
−6%	–	–	CCCCCCC(C(=O)NO)S(=O)(=O)CCc1cccc[n+]1[O-] (stereo not shown) [Example 183, 2-[2-(1-Oxy-pyridin-2-yl)-ethanesulfonyl]-octanoic acid hydroxyamide]
−10%	–	–	CCCCCCC(Sc1ccc(OCc2ccccc2)cc1)C(=O)NO (stereo not shown) [Example 199, 2-(^4-Benzyloxy-phenylsulfanyl)-octanoic acid hydroxyamide]

Molecule	MMP 13 % inhibition at 36 nM (HTS) [1]	TACE % inhibition at 1 mM [2]	MMP 13 % inhibition at 0.2 μM (HTS) [1]
3-(1-Hydroxycarbamoyl-heptylsulfanyl)-benzoic acid hydroxyamide [Example 184]	16%	24.8%	–
